Assay [1] in a line: Antihypertensive activity: systolic blood pressure, tail cuff method, spontaneously hypertensive rats. It counts as in vivo. Particulars: spontaneously hypertensive rats (systolic blood pressure >180 mmHg). On the procedure: Systolic blood pressures were recorded by a modification of the tail cuff method described by I. M. Claxton, M. G. Palfreyman, R. H. Poyser, R. L. Whiting, European Journal of Pharmacology, 37, 179 (1976). A W+W BP recorder, model 8005 was used to display pulses. Prior to all measurements rats were placed in a heated environment (33.5°±0.5° C.) before transfer to a restraining cage. Each determination of blood pressure was the mean of at least 5 readings. Spontaneously hypertensive rats (ages 12-18 weeks) with systolic blood pressures >180 mmHg were considered hypertensive.

In assay [2] the test system is guinea-pig isolated trachealis. Put plainly: Bronchodilator activity: inhibition of spontaneous tone in guinea-pig isolated trachealis. Particulars: Cavia porcellus; tracheal spirals, Krebs solution 37° C.; relaxation as percentage of total relaxation with 10^-3 M isoprenaline. The procedure:
Male guinea pigs (300-600 g) were stunned by a blow to the head and bled from the carotid artery. The trachea was exposed, dissected free of connective tissue, and transferred to oxygenated Krebs solution at 37° C. Next, spirals (2 per trachea) were prepared by cutting the whole trachea spirally along its longitudinal axis and then dividing this spiral lengthwise. Each preparation was mounted, using silk thread, in a 10 ml organ bath filled with Krebs solution at 37° C. and bubbled with 5% CO2 with O2. The resting tension of the preparations was set at 2 g and changes in muscle tension were monitored isometrically by means of a UFI (2 oz) force and displacement transducer (Ormed Ltd) connected to a Linseis pen recorder. All preparations were allowed to equilibrate for 60 minutes. During this equilibration period the preparations were washed by upward displacement at 15 minute intervals and, if necessary, the resting tension was readjusted to 2 g using a mechanical micromanipulator system.
Once a steady resting tension had been obtained, the preparations were dosed […] with the test compound (10^-8 -2×10^-5 M), and finally a maximum relaxation achieved by addition of 10^-3 M isoprenaline. The fall in tension evoked by the test compound was expressed as a percentage of the total relaxation evoked in the presence of […]. Appropriate concentration-relaxation curves were then constructed and values for potency (IC50) were obtained.
[The composition of Krebs solution is: sodium chloride 118.07 mM, sodium hydrogen carbonate 26.19 mM, potassium chloride 4.68 mM, potassium orthophosphate 1.18 mM, magnesium sulphate septahydrate 1.8 mM and calcium chloride 2.52 mM;pH ca. 7.45.]

Regarding `CNc1c(N[C@@H]2c3cc(C#N)ccc3OC(C)(C)[C@H]2O)c(=O)c1=O` (relative stereo) [Example 2], the “lowers blood pressure by” value in assay [1] (3 mg/kg p.o.) stood at 17%. The same compound displayed a 50% inhibitory concentration (IC50) in assay [2] of 4 µM.

For `CC1(C)Oc2ccc(C#N)cc2[C@@H](Nc2c(N)c(=O)c2=O)[C@@H]1O` (relative stereo) [Example 1], the “lowers blood pressure by” value in assay [1] (3 mg/kg p.o.) is listed as 50%. This compound returned an IC50 in assay [2] of 3.7 µM.

Take `CCc1ccc2c(c1)[C@@H](N(C)c1c(N)c(=O)c1=O)[C@H](O)C(C)(C)O2` [Example 12, trans-(3S,4R)-N^1-[4-(6-Ethyl-3,4-dihydro-2,2-dimethyl-2H-1-benzopyran-3-ol)]-2-amino-1-methylaminocyclobutene-3,4-dione]: in assay [1] (0.05 mg/Kg p.o.), the “lowers blood pressure by” value was found to be 24%.

As to `CN(c1c(N)c(=O)c1=O)[C@@H]1c2cc(C#N)ccc2OC(C)(C)[C@H]1O` (relative stereo) [Example 3, trans-N'-[4-(6-Cyano-3,4-dihydro-2,2-dimethyl-2H-1-benzopyran-3-ol)]-2-amino-1-methylaminocyclobutene-3,4-dione], the “lowers blood pressure by” value in assay [1] (3 mg/kg p.o.) is on record as 58%. Besides, the 50% inhibitory concentration (IC50) in assay [2] amounted to 3.1 µM.

Broadly, the IC50 is the concentration at which inhibition is half-maximal. The low end stands for higher potency, the high end for lower potency.

These data come from patent US5147866A, “1,2-diamino-cyclobuten-3,4-dione derivatives” (Beecham Group p.l.c., priority 1989, dated 1992).
